We go through 4 molecules from US20150257378A1, “PHEROMONE ATTRACTANTS FOR TAWNY CRAZY ANTS” (STERLING INTERNATIONAL INC., priority 2014, published 2015).

Each structure is given as a SMILES string.

In experiment [1] the test system is N. fulva workers. Nature of the experiment: Field trapping experiments with baited sticky traps. The settings on record: for attraction compared with blank control: Exp. 8, full factorial design, n-undecane 6-7 mg/day, 2-tridecanone 1 mg/day, formic acid 27-30 mg/d, three days. Type of experiment: in vivo, Nylanderia fulva. How it is done: Nine field trapping experiments were carried out in an old oak woodland with sandy soil and low grass understory at La Marque, Tex., USA (29° 21′23.73″N; 95° 0′9.47″W), using Terro® “Spider & Insect Traps” (sticky traps; Woodstream Corporation, Lititz, Pa.) or Rescue!® crawling insect sticky traps (described, for example in U.S. Application Publication No. 2013/0318860 A1, herein incorporated by reference in its entirety). All the tested dispensers were placed in the center of sticky surface on the bottom of the trap. An unbaited sticky trap was included in each experiment block for all the experiments as a blank control.
Experiments 1 and 2 were conducted simultaneously in summer. Exp. 1 tested two synthetic Dufour's gland pheromone candidate mixtures identified from N. fulva workers (treatment “A”: a mix of eight compounds at near natural ratios from workers: n-undecane, 2-tridecanone, n-decane, 1-undecene, n-tridecane, 2-dodecanone, 2-tetradecanone, 2-pentadecanone; 41:53:1.2:0.5:1:2:0.3:1) and queens (treatment “B”: a mix of four compounds at near natural ratios: n-undecane, 2-tridecanone, n-tridecane and 2-pentadecanone; 54:40:1:5) plus a synthetic binary blend of the two major components (undecane and 2-tridecanone at 50:50 ratio) identified from both workers and queens (treatment “C”) (Table in FIG. 3) using centrifuge tube dispensers with low loading (30 mg each mixture on a small cotton ball inside an open cap 2-ml centrifuge dispenser) at about 2 mg/day (mg/d) release in a randomized block design (6 blocks) using Terro® “Spider & Insect Traps”. Traps were placed on the ground in lines with 2 meters (m) between traps within each set, 3 m between trap sets. […] Experiment 2 was distanced about 15 m away from Exp. 1. The tawny crazy ant population level at the testing site was relatively high and ubiquitous throughout the landscape, as the tawny crazy ant population was actively foraging over the entire surface of the woodland understory and up every tree. The weather was sunny with a mean daily temperature of 28.6° C.
Experiments 3 and 4 were conducted simultaneously in the fall. Exp. 3 tested two synthetic Dufour's gland pheromone candidate mixtures mimicking the N. fulva workers (treatment “A”: a mix of eight compounds; 100 mg loading) and queens (treatment “B”: a mix of four compounds; 100 mg loading) using centrifuge dispensers (with one small cotton ball in each) with low release rate (ca. 2 mg/d), one positive control (treatment “C”: yellow plastic cap loaded with 1 g of Advance® Granular Carpenter Ant Bait, BASF Corporation, NJ, USA), plus a blank control (“D”), in a randomized block design (6 blocks/sets) using the Rescue!® crawling insect sticky traps. Same as in Exp. 1-2, the traps were placed were placed on the ground in lines with 2 m between traps within each set, 3 m between trap sets. […] Exp. 4 was distanced 20 m from Exp. 3. The weather was sunny with a mean daily temperature of 23.4° C. for days 1 and 2. On Day 3 the weather was overcast with a mean daily temperature of 25.3° C. and 0.97 cm of rainfall.
Experiments 5 and 6 were conducted simultaneously in late fall. Exp. 5 tested potential attraction of N. fulva workers to a synthetic mixture mimicking the full blend of N. fulva worker Dufour's gland pheromone (treatment “A”: a mix of eight compounds; 100 mg mixed with 400 μl canola oil (CO) from a stickpack dispenser; 8-12 mg/d), a synthetic pheromone candidate of N. fulva poison gland, formic acid (FA) (treatment “B”; 438 mg FA mixed with 812 mg of polyurethane inside an open 2-ml centrifuge tube; at 27-30 mg/d release) and their combination (treatment “C”) plus a blank control (“D”) in a randomized block design (6 blocks/sets) using the Rescue!® crawling insect sticky traps. Traps were again placed on the ground in lines with 2 m between traps within each set, 3 m between trap sets.

In experiment [2] the test system is workers of the red imported fire ants. The settings on record: contact/fumigation; cited from earlier work.
Experiment [3] concerns Argentine ant (Linepithema humile) workers. The settings on record: mixed with the baits; cited from earlier work.
For experiment [4], the system named is L. humile workers. The settings on record: mixed in insecticide sprays; cited from earlier work.

With `O=CO` [formic acid], the “significance of difference from blank control” value in experiment [1] (Exp. 5, late fall, low temperature and rain) is “no significant differences”. Moreover, the “N. fulva workers caught compared with blank control (in words)” value in experiment [1] (Exp. 5, late fall, low temperature and rain, mix of 8 at 8-12 mg/d, formic acid at 27-30 mg/d) is “twice as many”. In addition, the “attraction of N. fulva workers” value in experiment [1] (Exp. 7, summer, high ant populations, mix of 8 at 8-12 mg/d, formic acid at 27-30 mg/d) was “inactive”. The “attraction compared with blank control” value in experiment [1] was “not different from the blank control”. Also, the “toxicity to fire ant workers” value in experiment [2] is listed as “strong contact/fumigation toxicity”.

Consider `CCCCCCCCCCC` [n-undecane], for which the “attraction compared with blank control” value in experiment [1] is “significantly attractive”. In addition, the “attraction of tawny crazy ant workers” value in experiment [1] (Exp. 9, fall, n-undecane from stickpack at 9-11 mg/d) is reported as “weakly, but significantly attractive”. In addition, in experiment [2], the “toxicity to fire ant workers” value is “strong contact/fumigation toxicity”.

On to `CCCCCCCCCCCC(C)=O` [2-tridecanone], for which the “attraction compared with blank control” value in experiment [1] was “not different from the blank control”. Also, the “toxicity to fire ant workers” value in experiment [2] is “strong contact/fumigation toxicity”.

As to `CCCCCC/C=C\CCCCCCCC=O` [Z-9-hexadecenal], the “effect on consumption of sugar-based liquid baits by ant workers” value in experiment [3] was “increase the consumption”. In addition, the “effect on killing efficacy of insecticides” value in experiment [4] is “increase the killing efficacy”.
